Data published in patent US20260347364A1, “PYRAZOLO[4,3-F]QUINAZOLINE DERIVATIVES AS MODULATORS OF G12D MUTANT KRAS USEFUL FOR THE TREATMENT OF CANCER” (JAZZ PHARMACEUTICALS IRELAND LTD., priority 2023, published 2026).

Columns and labels:
KRAS G12D = target: T1, KRAS G12D (Homo sapiens, UniProt P01116, G12D); assay: HTRF nucleotide exchange assay, KRAS G12D; type: biochemical; details: HTRF nucleotide exchange assay (NEA), class symbols
T1 construct: aa1-188 KRAS WT, HRAS WT, NRAS WT, or KRAS containing the G12D

KRAS WT = target: T2, KRAS WT (Homo sapiens, UniProt P01116); assay: HTRF nucleotide exchange assay, KRAS WT; type: biochemical; details: HTRF nucleotide exchange assay (NEA), class symbols
T2 construct: aa1-188 KRAS WT

KRAS G12V = target: T3, KRAS G12V (Homo sapiens, UniProt P01116, G12V); assay: HTRF nucleotide exchange assay, KRAS G12V; type: biochemical; details: HTRF nucleotide exchange assay (NEA), class symbols
T3 construct: 4 nM KRAS; aa1-188 containing the G12V, G12C, G12A or G12S amino acid substitution
Description: (§1) HTRF Nucleotide Exchange Assay Method
The capacity of compounds to bind KRAS G12D, other KRAS mutants and wildtype RAS isoforms was quantified using a HTRF nucleotide exchange assay. Recombinant human RAS protein (2 nM; aa1-188 KRAS WT, HRAS WT, NRAS WT, or KRAS containing the G12D, G13D or Q61H amino acid substitutions, or 4 nM KRAS; aa1-188 containing the G12V, G12C, G12A or G12S amino acid substitution, an N-terminal 6× His-tag and leader sequence), and 2 nM Europium-labeled anti-6× His antibody were mixed in assay buffer (10 mM HEPES pH 7.3, 150 mM NaCl, 5 mM MgCl2, 0.05% BSA, 0.0025% NP-40 and 100 mM KF) with various concentrations of compound in a 384-well plate and a volume of 5 μL. After a 60-minute incubation at room temperature, 5 μl of 200 nM EDA-GTP-DY647P1 (diluted in assay buffer) was added to the plate. Following 30-minute incubation at room temperature, time-resolved fluorescence was measured on a PerkinElmer Envision plate reader. DMSO (0.3%) and unlabeled GDP (1 μM) or equivalent tool compound were used to generate the Max and Min assay signals, respectively. Data was analysed using a four-parameter logistic model to calculate IC50 values, with at least two independent replicates were performed for each compound. The results are presented as IC50s in Table 29 where “A” corresponds to an IC50 ≤10 nM, “B” to an IC50 >10 nM up to 100 nM, “C” is >100 nM up to 10 μM, “D” represents <49% inhibition at 10 μM and ND=not determined: […]

KRAS G12A = target: T4, KRAS G12A (Homo sapiens, UniProt P01116, G12A); assay: HTRF nucleotide exchange assay, KRAS G12A; type: biochemical; details: HTRF nucleotide exchange assay (NEA), class symbols
T4 construct: 4 nM KRAS; aa1-188 containing the G12V, G12C, G12A or G12S amino acid substitution
Description: as §1
(§2) The capacity of compounds to bind KRAS G12D, other KRAS mutants and wildtype RAS isoforms was quantified using a HTRF nucleotide exchange assay. Recombinant human RAS protein (2 nM; aa1-188 KRAS WT, HRAS WT, NRAS WT, or KRAS containing the G12D, G13D or Q61H amino acid substitutions, or 4 nM KRAS; aa1-188 containing the G12V, G12C, G12A or G12S amino acid substitution, an N-terminal 6× His-tag and leader sequence), and 2 nM Europium-labeled anti-6× His antibody were mixed in assay buffer (10 mM HEPES pH 7.3, 150 mM NaCl, 5 mM MgCl2, 0.05% BSA, 0.0025% NP-40 and 100 mM KF) with various concentrations of compound in a 384-well plate and a volume of 5 μL. After a 60-minute incubation at room temperature, 5 μl of 200 nM EDA-GTP-DY647P1 (diluted in assay buffer) was added to the plate. Following 30-minute incubation at room temperature, time-resolved fluorescence was measured on a PerkinElmer Envision plate reader. DMSO (0.3%) and unlabeled GDP (1 μM) or equivalent tool compound were used to generate the Max and Min assay signals, respectively. Data was analysed using a four-parameter logistic model to calculate IC50 values, with at least two independent replicates were performed for each compound. […]

KRAS G12S = target: T5, KRAS G12S (Homo sapiens, UniProt P01116, G12S); assay: HTRF nucleotide exchange assay, KRAS G12S; type: biochemical; details: HTRF nucleotide exchange assay (NEA), class symbols
T5 construct: 4 nM KRAS; aa1-188 containing the G12V, G12C, G12A or G12S amino acid substitution
Description: as §1, §2

[1] = Metabolic stability in human liver hepatocytes (substrate depletion, intrinsic clearance); type: in vitro ADME; details: 37° C., Williams E Media, LC-MS/MS depletion
From the text: Determining the in vitro metabolic stability of a new chemical entity (NCE) is a very useful tool within drug discovery. A metabolic stability study will determine the in vitro intrinsic clearance (CLint) of a compound. The CLint value represents a measure of enzyme activity toward an NCE and is independent of other physiological factors such as blood flow. Determination of CLint within drug discovery helps to identify metabolic liabilities within a compound series, and ultimately assist in the identification of compounds with improved metabolic stability. The CLint value determined in vitro can be used to predict in vivo clearance (using species specific scaling factors) in pre-clinical species and ultimately in human. The liver is the primary organ involved in drug metabolism, of which there are two pathways-Phase I and Phase II. Phase I metabolism is primarily oxidative with the majority of these oxidations catalysed by cytochrome P450 enzymes (CYPs) which are located in the smooth endoplasmic reticulum (ER) in the liver. Phase II metabolism is catalysed by various conjugative enzymes which are located mainly in the ER and the cytosol. The in vitro systems used to study drug metabolism are mainly subcellular fractions such as liver microsomes or whole cells (hepatocytes) isolated from the liver. Hepatocytes, being whole cells, contain both Phase I and Phase II metabolizing enzymes and produce their own cofactors. This assay determines the metabolic stability of test compounds in human liver hepatocytes using the substrate depletion approach. The lower limit of the assay is a T1/2 >462 min and a CLint […]. Therefore the upper limit of the assay is 277 μL/min/106 cells. Any CLint value higher than this should be given an out of range value. Hepatocytes were plated in Williams E Media with added L-glutamine, compounds were added as 1 mM DMSO solution and incubated at 37° C. Compound depletion was measured by LC-MS/MS at multiple time points following quenching with cold acetonitrile. CLint was calculated from the following equation:
CLint(μl/min/106cells)=(In(2)/T1/2)*1000/cell density(10^6cells/mL)

T2 sequence (P01116 1-188 isoform P01116-2): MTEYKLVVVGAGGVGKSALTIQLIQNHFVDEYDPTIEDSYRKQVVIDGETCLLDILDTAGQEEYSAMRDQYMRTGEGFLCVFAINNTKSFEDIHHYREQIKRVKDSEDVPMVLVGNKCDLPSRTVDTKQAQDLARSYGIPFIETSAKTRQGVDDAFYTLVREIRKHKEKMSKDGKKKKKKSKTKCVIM
T1 sequence (P01116 1-188 isoform P01116-2 G12D): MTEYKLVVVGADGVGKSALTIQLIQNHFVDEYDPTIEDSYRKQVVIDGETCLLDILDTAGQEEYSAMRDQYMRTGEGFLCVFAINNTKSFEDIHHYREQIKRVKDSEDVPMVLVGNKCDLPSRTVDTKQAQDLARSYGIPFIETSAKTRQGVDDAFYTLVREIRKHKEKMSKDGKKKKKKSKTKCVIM
T3 sequence (P01116 1-188 isoform P01116-2 G12V): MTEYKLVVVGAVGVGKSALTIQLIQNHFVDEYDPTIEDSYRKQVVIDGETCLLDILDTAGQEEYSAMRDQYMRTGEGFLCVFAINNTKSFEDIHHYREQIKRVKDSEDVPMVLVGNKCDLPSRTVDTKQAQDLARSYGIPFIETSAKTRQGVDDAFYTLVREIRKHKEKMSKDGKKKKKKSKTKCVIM
T5 sequence (P01116 1-188 isoform P01116-2 G12S): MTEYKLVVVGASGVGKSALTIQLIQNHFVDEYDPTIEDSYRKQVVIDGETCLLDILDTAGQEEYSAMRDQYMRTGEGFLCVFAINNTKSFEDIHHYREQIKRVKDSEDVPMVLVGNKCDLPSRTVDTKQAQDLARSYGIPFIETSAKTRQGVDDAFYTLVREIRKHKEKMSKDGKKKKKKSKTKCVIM
T4 sequence (P01116 1-188 isoform P01116-2 G12A): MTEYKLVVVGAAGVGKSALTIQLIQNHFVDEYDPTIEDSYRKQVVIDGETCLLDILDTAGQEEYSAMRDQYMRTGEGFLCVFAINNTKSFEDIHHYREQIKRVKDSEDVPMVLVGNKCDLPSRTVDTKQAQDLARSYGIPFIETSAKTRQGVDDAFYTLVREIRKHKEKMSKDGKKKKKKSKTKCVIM

Compound | IC50 (KRAS G12D) | IC50 (KRAS WT) | IC50 (KRAS G12V) | IC50 (KRAS G12A) | IC50 (KRAS G12S) | hepatocyte CLint [1]
CCc1c(F)ccc2cc(O)cc(-c3cc4nc(OC[C@@]56CCCN5C[C@H](F)C6)nc(N5CCCC(C)(O)C5)c4c4cn(C)nc34)c12 (mixture of isomers) [Example 7, 1-[4-(8-ethyl-7-fluoro-3-hydroxy-1-naphthyl)-2-methyl-7-[[rac-(2R,8S)-2-fluoro-1,2,3,5,6,7-hexahydropyrrolizin-8-yl]methoxy]pyrazolo[4,3-f]quinazolin-9-yl]-3-methyl-piperidin-3-ol] | ≤ 10 nM | ≤ 10 nM | ≤ 10 nM | – | – | –
CCc1c(F)ccc2cc(O)cc(-c3c(C)c4nc(OC[C@@]56CCCN5C[C@H](F)C6)nc(N5CCOCC(C)(O)C5)c4c4cn(C)nc34)c12 (mixture of isomers) [Example 105, 4-[4-(8-ethyl-7-fluoro-3-hydroxy-1-naphthyl)-2,5-dimethyl-7-[rac-(2R)-2-fluoro-1,2,3,5,6,7-hexahydropyrrolizin-8-yl]methoxy]pyrazolo[4,3-f]quinazolin-9-yl]-6-methyl-1,4-oxazepan-6-ol] | ≤ 10 nM | ≤ 10 nM | ≤ 10 nM | ≤ 10 nM | 10 to 100 nM | –
CCc1c(F)ccc2cc(O)cc(-c3cc4nc(OC[C@@]56CCCN5C[C@H](F)C6)nc(N5CCCOCC5)c4c4cn(C)nc34)c12 [Example 1, 5-ethyl-6-fluoro-4-[2-methyl-9-(1,4-oxazepan-4-yl)-7-[[(2R,8S)-2-fluoro-1,2,3,5,6,7-hexahydropyrrolizin-8-yl]methoxy]pyrazolo[4,3-f]quinazolin-4-yl]naphthalen-2-ol] | ≤ 10 nM | ≤ 10 nM | 10 to 100 nM | ≤ 10 nM | 10 to 100 nM | 73.3 µL/min/1e6 cells
CCc1c(F)ccc2cc(O)cc(-c3cc4nc(OC[C@@]56CCCN5C[C@H](F)C6)nc(N5CC6CCC5CN6)c4c4cn(C)nc34)c12 (stereo partly drawn) [Example 14, 4-[9-(2,5-diazabicyclo[2.2.2]octan-2-yl)-2-methyl-7-[[(2R,8S)-2-fluoro-1,2,3,5,6,7-hexahydropyrrolizin-8-yl]methoxy]pyrazolo[4,3-f]quinazolin-4-yl]-5-ethyl-6-fluoro-naphthalen-2-ol] | ≤ 10 nM | 100 to 10000 nM | 10 to 100 nM | – | – | –
C#Cc1c(F)ccc2cc(O)cc(-c3cc4nc(OC[C@@]56CCCN5C[C@H](F)C6)nc(N5CCCOCC5)c4c4cn(C)nc34)c12 [Example 2, 5-ethynyl-6-fluoro-4-[2-methyl-9-(1,4-oxazepan-4-yl)-7-[[(2R,8S)-2-fluoro-1,2,3,5,6,7-hexahydropyrrolizin-8-yl]methoxy]pyrazolo[4,3-f]quinazolin-4-yl]naphthalen-2-ol] | ≤ 10 nM | ≤ 10 nM | – | – | – | 54.2 µL/min/1e6 cells
